The experiment has as its system Costello (CS) zebrafish injected with HRASV12 plasmid. As to the kind of experiment: Phenotype analysis (survival, developmental defects) of Costello zebrafish embryos. It is filed as in vivo, Zebrafish (Danio rerio). The note with it: HRASG12V-embryos; for survival rate: single agent 20 μM by bathing 1 dpf to 5 dpf, 4 days of treatment; for number of defective individuals among alive embryo: single agent 20 μM, vehicle (DMSO) 60%.

We go through 2 compounds from patent US20240293358A1, “COMPOSITION COMPRISING PPAR-MODULATOR AND AN UROLITHIN DERIVATIVE AND USES THEREOF” (Universite de Bordeaux, priority 0001, published 2024).

Procedure: Zebrafish (Danio rerio) embryos were obtained from natural spawnings and raised in embryo medium (E3) (97) at 28.5° C. Embryos were staged as described previously [46]. Starting 5 days post-fertilisation (dpf), embryos were fed daily. […] 1 nl of 12.5 ng/μl of GFP-H-RASV12 plasmid and 12.5 ng/μl of T2 transposase mRNA were co-injected in the first cell of zebrafish eggs. Control embryos were injected with the same volume of PBS. H-RASV12 was expressed in zebrafish embryo under heat shock, 30 mn at 37° C. at 1 day post fertilization (dpf) and embryo expressing GFP at 2 dpf were selected for the study.
The embryo injected with the HRASV12 plasmid were treated daily by bathing from 1 dpf to 5 dpf with respectively 20 μM bezafibrate, 20 μM urolithin A, 20 μM bezafibrate+20 μM urolithin A, 10 μM bezafibrate+5 μM urolithin A, 5 μM bezafibrate+5 μM urolithin A. Control embryos were treated with the same volume of DMSO corresponding to 0.2% of DMSO. The imaging and phenotype analysis of mortality and defects of appearance after plasmid injection were performed on alive embryo anesthetized using ethyl 3-aminobenzoate methanesulfonate, MS-222 (Sigma, Cat. #A-5040) at 200 mg/L at 2 days post fertilization, 3 dpf, 4 dpf and 5 dpf using a ZEISS axiocam stereomicroscope (ZEISS, Germany).
Embryos injected with HRASV12 plasmid were selected at 2 days post fertilization (dpf) following their GFP^+/+ expression. HRASV12 plasmid was activated under a heat shock of embryos at 37° C. for 30 minutes. Embryos were observed daily from 2 dpf to 5 dpf in order to analyze the effect of HRASV12 overexpression on their physiological development (FIG. 1A, 1B).

Regarding `O=c1oc2cc(O)ccc2c2ccc(O)cc12` [urolithin A], the survival rate is listed as at most 65% and the “number of defective individuals among alive embryo” value stood at 43%.

In the case of `CC(C)(Oc1ccc(CCNC(=O)c2ccc(Cl)cc2)cc1)C(=O)O` [bezafibrate, 2-(4-{2-[(4-chlorobenzoyl)amino]ethyl}phenoxy)-2-methylpropanoic acid], the survival rate result is “up to 70%” and the “number of defective individuals among alive embryo” value is given as 45%.
